Experimental data published in patent US7700522B2, “α-Oxygenated or α-thiolated carboxylic acid phenethylamide derivatives” (Syngenta Crop Protection, Inc., priority 2001, dated 2010).

What was measured:
Assay type in all cases: in vivo
Phytophthora [1] = assay: D-2b systemic action against Phytophthora on tomato plants; conditions: test D-2b, soil watering 96 hours before infection, untreated plants attack 80-100%, read-out: inhibit fungal infestations
Experimental: (§1) D-2: Action Against Phytophthora on Tomato Plants
After a cultivation period of 3 weeks, tomato plants are watered with a spray mixture (0.02% active ingredient based on the volume of the soil) prepared from a wettable powder formulation of the test compound. […] After 96 hours, the treated plants are infected with a sporangia suspension of the fungus. Fungus infestation is evaluated after incubation of the infected plants for 4 days at 90-100% relative humidity and +20° C.

Phytophthora [2] = assay: D-3b systemic action against Phytophthora on potato plants; conditions: test D-3b, potato plants (Bintje), soil watering 48 hours before infection, untreated plants attack 80 to 100%, read-out: inhibit fungal infestations
Experimental: (§2) D-3: Action Against Phytophthora on Potato Plants
2-3 week old potato plants (Bintje variety) are watered with a spray mixture (0.02% active ingredient based on the volume of the soil) prepared from a wettable powder formulation of the test compound. […] After 48 hours, the treated plants are infected with a sporangia suspension of the fungus. Fungus infestation is evaluated after incubation of the infected plants for 4 days at 90-100% relative humidity and +20° C.

Phytophthora [3] = assay: D-2a residual-protective action against Phytophthora on tomato plants; conditions: test D-2a, sprayed 48 hours before infection, untreated plants attack 80-100%, read-out: inhibit fungal infestations
Experimental: as §1
(§3) a) Residual-protective Action
After a cultivation period of 3 weeks, tomato plants are sprayed with a spray mixture (0.02% active ingredient) prepared from a wettable powder formulation of the test compound. After 48 hours, the treated plants are infected with a sporangia suspension of the fungus. Fungus infestation is evaluated after incubation of the infected plants for 5 days at 90-100% relative humidity and +20° C.

Phytophthora [4] = assay: D-3a residual-protective action against Phytophthora on potato plants; conditions: test D-3a, potato plants (Bintje), sprayed 48 hours before infection, untreated plants attack 80 to 100%, read-out: inhibit fungal infestations
Experimental: as §2, §3
2-3 week old potato plants (Bintje variety) are sprayed with a spray mixture (0.02% active ingredient) prepared from a wettable powder formulation of the test compound. After 48 hours, the treated plants are infected with a sporangia suspension of the fungus. Fungus infestation is evaluated after incubation of the infected plants for 4 days at 90-100% relative humidity and +20° C.

Plasmopara viticola [5] = assay: D-1a residual-protective action against Plasmopara viticola on vines; conditions: test D-1a, vine seedlings, sprayed 24 hours before infection, untreated plants attack 80-100%, read-out: inhibit fungal infestations
Experimental: (§4) D-1: Action Against Plasmopara Viticola on Vines
as §3
Vine seedlings are sprayed at the 4- to 5-leaf stage with a spray mixture (0.02% active ingredient) prepared from a wettable powder formulation of the test compound. After 24 hours, the treated plants are infected with a sporangia suspension of the fungus. Fungus infestation is evaluated after incubation for 6 days at 95-100% relative humidity and +20° C.

Plasmopara viticola [6] = assay: D-1b residual-curative action against Plasmopara viticola on vines; conditions: test D-1b, vine seedlings, sprayed 24 hours after infection, untreated plants attack 80-100%, read-out: inhibit fungal infestations
Experimental: as §4
b) Residual-curative Action
Vine seedlings are infected at the 4- to 5-leaf stage with a sporangia suspension of the fungus. After incubation for 24 hours in a humidity chamber at 95-100% relative humidity and +20° C., the infected plants are dried and sprayed with a spray mixture (0.02% active ingredient) prepared from a wettable powder formulation of the test compound. After the spray coating has dried, the treated plants are placed in the humidity chamber again. Fungus infestation is evaluated 6 days after infection.

Measured: inhibition at 200 ppm

C#CCOc1ccc(CCNC(=O)C(Cc2ccc(F)cc2)OCC#C)cc1OC (stereo not shown) [Compound E1.06, 3-(4-fluoro-phenyl)-N-[2-(3-methoxy-4-prop-2-ynyloxy-phenyl)-ethyl]-2-prop-2-ynyloxy-propionamide]
80 to 100%: Phytophthora [1] | Phytophthora [2] | Phytophthora [3] | Phytophthora [4]

C#CCOc1ccc(CCNC(=O)C(Cc2ccc(C)cc2)OCC#C)cc1OC (stereo not shown) [Compound E1.18, N-[2-(3-methoxy-4-prop-2-ynyloxy-phenyl)-ethyl]-2-prop-2-ynyloxy-3-p-tolyl-propionamide]
80 to 100%: Plasmopara viticola [5] | Plasmopara viticola [6]

C#CCOc1ccc(CCNC(=O)C(Cc2ccc(Br)cc2)OCC#C)cc1OC (stereo not shown) [Compound E1.15, 3-(4-bromo-phenyl)-N-[2-(3-methoxy-4-prop-2-ynyloxy-phenyl)-ethyl]-2-prop-2-ynyloxy-propionamide]
80 to 100%: all assays above

C#CCOc1ccc(CCNC(=O)C(Cc2ccccc2)OCC#C)cc1OC (stereo not shown) [Compound E1.03, N-[2-(3-methoxy-4-prop-2-ynyloxy-phenyl)-ethyl]-3-phenyl-2-prop-2-ynyloxy-propionamide]
80 to 100%: all assays above

C#CCOc1ccc(CCNC(=O)C(Cc2ccc(Cl)cc2)OCC#C)cc1OC (stereo not shown) [Compound E1.10, 3-(4-chloro-phenyl)-N-[2-(3-methoxy-4-prop-2-ynyloxy-phenyl)-ethyl]-2-prop-2-ynyloxy-propionamide]
80 to 100%: all assays above

C#CCOc1ccc(CCNC(=O)C(Cc2ccc(CC)cc2)OCC#C)cc1OC (stereo not shown) [Compound E1.22, 3-(4-ethyl-phenyl)-N-[2-(3-methoxy-4-prop-2-ynyloxy-phenyl)-ethyl]-2-prop-2-ynyloxy-propionamide]
80 to 100%: Phytophthora [1] | Phytophthora [3] | Plasmopara viticola [5] | Plasmopara viticola [6]
